Converted amounts (≈) assume the structure as drawn.

Holding throughout (format): cell-based
One experiment concerns E. faecalis ATCC29212. As to the kind of experiment: Intrinsic antibacterial activity, standard microdilution (CLSI). The note with it: Enterococcus faecalis; E. faecalis ATCC29212, compound alone, 24 h, 37 °C. On the procedure:
(§1) The bacterial strains used in the examples below are the reference strains P. aeruginosa ATCC27853, E. coli ATCC25922, K. pneumoniae ATCC51296, S. aureus ATCC25923 and E. faecalis ATCC29212. The bacterial strains were previously stored in 15% (v/v) glycerol at −80 °C for cryoprotection. One colony of the fresh culture of each strain was incubated in a culture tube containing 3 ml of Mueller-Hinton broth (MH2) at 37 °C overnight with agitation. This suspension was used for inoculum preparation.
(§2) The antibacterial activity of said polyaminated fatty acid compounds was measured using a standard microdilution test based on Clinical and Laboratory Standards Institute (CLSI) guidelines. This method was slightly modified by increasing the assay volumes to 200 μl so as to improve reproducibility.
(§3) A negative control which corresponds to 2 ml of sterile culture medium and a positive control which corresponds to a mixture of 1980 μl of culture medium and 20 μl of bacterial suspension from a thawed biological strain (biological strains are stored at −80 °C in glycerol) were prepared.
(§4) The tubes were incubated in an incubator shaker “Infors” at 37 °C for 24 hours at 100 round per minute (rpm).
(§5) The polyaminated fatty acid compounds to be tested were prepared in water at a concentration of 10 mM.
(§6) The required volume of the microbial suspension to be inoculated was calculated for an optical density (OD) measured corresponding to a value equal to 0.01 in each well by using a spectrophotometer at 600 nm. In the microplate, the first row corresponded to the negative control (200 μl of sterile culture medium in each well), the second row to the positive control (seeded culture medium), the third row was loaded twice with bacterial suspension and with 8 μl of a given polyaminated fatty acid compound in each well. Subsequently, a half-fold cascade dilution was performed from this line. The first column was used as an inhibition control. A sterile filter was then placed on the microplate allowing the passage of gases but not contaminants. The microplate was incubated at 37 °C in a humid atmosphere for 24 hours. After 24 hours of incubation, an optical density measurement was performed by taking 100 μl of the bacterial suspension diluted in 900 μl of sterile culture medium.
(§7) The medium used was Mueller-Hinton medium (MH) for bacteria. All tests were performed in duplicate.
(§8) Table 1 below reports the intrinsic antibacterial activity of some polymaminated fatty acids prepared in example 1 (MIC in μM) as well as their toxicity towards eucaryotic cells (IC50 in μM).

Experiment [1] deals with P. aeruginosa ATCC27853. The description is as above. The note with it: Pseudomonas aeruginosa; P. aeruginosa ATCC27853, compound alone, 24 h, 37 °C. As for the experimental part: as §1, §2, §3, §4, §5, §6, §7, §8
Another experiment relates to S. aureus ATCC25923. The experiment is described as above. The note with it: Staphylococcus aureus; S. aureus ATCC25923, compound alone, 24 h, 37 °C. On the procedure: as §1, §2, §3, §4, §5, §6, §7, §8
Experiment [2] deals with Chinese hamster ovary cells (CHO-K1). As to the kind of experiment: Toxicity on mammalian cells, WST1 assay. To be noted: Cricetulus griseus; CHO-K1 cell viability, WST1, 24 h. As for the experimental part:
The WST1 assay was used to measure the cytotoxic activity of the polyaminated fatty acid compounds. It is a colorimetric assay that measures viability and cell proliferation rate. It is based on the cleavage of colorless tetrazolium salts WST-1 (4-[3-(4-iodophenyl)-2-(4-nitrophenyl)-2H-5-tetrazolio]-1,3-benzene disulfonate) by mitochondrial dehydrogenases into yellow formazan derivative, quantifiable by spectrophotometry at 420-480 nm.
The WST1 assay was performed on Chinese hamster ovary cells. CHO-K1 cells (ATCC, USA) were maintained in culture in “Mac Coy's 5A” medium supplemented with 10% fetal calf serum, 2 mM L-glutamine and streptomycin penicillin mixture (100 U/ml: 10 μg/ml). Incubation is carried out at 37 °C under CO2 enriched atmosphere (5% by volume) and subcultured every two days.
Cells are transferred to 96-well plates (25,000 cells/ml) in complete “Mac Coy's 5A medium”, and maintained for 24 h at 37 °C under a humid CO2-enriched atmosphere (5% by volume). Increasing concentrations of given polyaminated fatty acid compounds are added to the wells in duplicate assays and 8 growth controls containing cells in medium alone are included in each assay run. After 24 hours at 37 °C (5% CO2), the culture medium is removed, the cells are rinsed in phosphate buffer (PBS) and 50 μL of PBS containing 10% WST1 reagent is added to each well. After 20 minutes of incubation at 37 °C, the results are read by spectrophotometry at 450 nm.
The results are expressed as dose-response relationships, modeled by a non-linear regression analysis using TableCurve software. The 50% Inhibitory Concentration (IC50) represents the concentration of polyaminated fatty acid compound capable of reducing cell viability by 50%.

In experiment [3] the test system is E. coli ATCC28922. The experiment in a line: Intrinsic antibacterial activity, standard microdilution (CLSI). The note with it: Escherichia coli, ATCC28922, 24 h. Background: Broth dilution looks for growth in wells or tubes with falling amounts of substance.
The subject of experiment [4] is P. aeruginosa ATCC27853. The experiment in a line: Antibacterial activity in combination with doxycycline. The note with it: Pseudomonas aeruginosa; P. aeruginosa ATCC27853 + Doxycycline (2 μg/ml), 24 h. On the procedure:
(§9) 100 μl of a liquid culture medium is deposited in each well of a 96-well microplate, and then inoculated with the bacterial suspension of example 2.1 prepared for the positive control. The volume needed to inoculate is calculated for an OD of 0.01 which corresponds to approximately 5,106 bacteria in each well. In this plate, the first row corresponds to a negative control (200 μl of sterile culture medium in each well), the second row to a positive control (100 μl of sterile culture medium with 100 μl of the bacterial suspension), the third row contains 192 μl of culture medium and 8 μl of polyaminated fatty acid compound to be tested in each well. Subsequently, a cascade dilution is performed from this line. Next, 3-8 μl of a doxycycline solution (1 mg dissolved in 20 ml) is added to each well of the lines to obtain a final antibiotic concentration of 2 μg/ml. Then, 92 μl of bacterial suspension is added to lines 3 to 8. The MIC with a concentration of doxycycline of 2 μg/ml in the presence of X μg/ml of polyaminated fatty acid compound is determined after 24 hours of incubation at 37 °C in a humid atmosphere.
The table 2 below reports the antibacterial activity (MIC in μM) of a combination of some polyaminated fatty acids prepared in example 1 with two antibacterial drugs doxycycline and erythromycin. […] On the Gram-negative strain of E. coli ([…]), erythromycin has a MIC of 50 μg/ml.

Experiment [5] concerns E. coli ATCC28922. As to the kind of experiment: Antibacterial activity in combination with erythromycin. The note with it: Escherichia coli, ATCC28922, 24 h. On the procedure: as §9
The table 2 below reports the antibacterial activity (MIC in μM) of a combination of some polyaminated fatty acids prepared in example 1 with two antibacterial drugs doxycycline and erythromycin. […]

As a reminder, the MIC is the lowest concentration that inhibits growth of the organism. As usually defined, the IC50 is the concentration at which inhibition is half-maximal. Read a low IC50 as greater potency in that assay. For `CCCCC/C=C\C/C=C\CCCCCCCC(=O)NCCCNCCCN` [PAFA11], the MIC was determined as 12.5 µM (≈ 4.92 µg/mL) in the experiment with E. faecalis ATCC29212; 25 µM (≈ 9.84 µg/mL) with P. aeruginosa ATCC27853 [1]; 12.5 µM (≈ 4.92 µg/mL) against S. aureus ATCC25923; 100 µM (≈ 39.4 µg/mL) with E. coli ATCC28922 [3]; 12.5 µM in the experiment with P. aeruginosa ATCC27853 [4]. The molecule further displayed an IC50 in experiment [2] of 21 µM.

On to `CCCCC/C=C\C/C=C\CCCCCCCC(=O)NCCNCCNCCN` [PAFA12], for which the MIC with E. faecalis ATCC29212 turned out to be 100 µM (≈ 40.9 µg/mL); in the experiment with P. aeruginosa ATCC27853 [1] it was 100 µM (≈ 40.9 µg/mL); against S. aureus ATCC25923, 200 µM (≈ 81.7 µg/mL); against E. coli ATCC28922 [3], 50 µM (≈ 20.4 µg/mL); with P. aeruginosa ATCC27853 [4], 50 µM. The molecule also came in with an IC50 in experiment [2] of 166 µM.

`CCCCC/C=C\C/C=C\CCCCCCCC(=O)NCCCNCCCCNCCCN` [PAFA14]: the MIC against E. faecalis ATCC29212 came out at 12.5 µM (≈ 5.81 µg/mL); against P. aeruginosa ATCC27853 [1], 100 µM (≈ 46.5 µg/mL); against S. aureus ATCC25923, 12.5 µM (≈ 5.81 µg/mL); against E. coli ATCC28922 [3], 25 µM (≈ 11.6 µg/mL); with P. aeruginosa ATCC27853 [4], 6.25 µM. In experiment [2], this molecule came in with an IC50 of 98 µM.

As to `CC[C@H]1OC(=O)[C@H](C)[C@@H](O[C@H]2C[C@@](C)(OC)[C@@H](O)[C@H](C)O2)[C@H](C)[C@@H](O[C@@H]2O[C@H](C)C[C@H](N(C)C)[C@H]2O)[C@](C)(O)C[C@@H](C)C(=O)[C@H](C)[C@@H](O)[C@]1(C)O` [erythromycin], in the experiment with E. coli ATCC28922 [5], the MIC is 50 µg/mL.

Source of the values: patent US20260373101A1, “POLYAMINATED FATTY ACIDS FOR USE AS POTENTIATORS OF ANTIBACTERIAL ACTIVITY” (priority 2023, published 2026).
